From patent US4110322A, “Peptide derivatives and pharmaceutical compositions containing same” (Akzona Incorporated, priority 1976, dated 1978)
Where no end group is shown, it is not given here. [ ]: non-standard residue; d: D form.

Experiments:
[1] = tested on: extinction of conditioned flight behaviour; settings: cited from earlier work; for retardation of the extinction of conditioned flight behaviour: European Journal of Pharmacology 2, 14 (1967)
[2] = tested on: extinction of conditioned flight behaviour; experiment: inhibition (retardation) of the extinction of conditioned flight behaviour; psychopharmacological activity; assay type: in vivo; settings: for Potency Ratio with Respect to 4-10 ACTH: 4-10 ACTH = 1
Text: This invention relates to the field of pharmaceutical compounds, and to the sub-field of psychopharmacologically active compounds. The compounds in question show an inhibition of the extinction of conditioned flight behaviour, as a result of which they are eminently suitable for the treatment of mental disorders in which a stimulation of the cerebral function is desired, such as in case of senility. The invention further relates to pharmaceutical compositions containing these peptide compounds or their derivatives where the latter are an active constituent.

Row | Substance | Potency Ratio with Respect to 4-10 ACTH ([2]; Table I) | Potency Ratio with Respect to 4-10 ACTH ([2]; Table II) | further results
1 | ACTH: natural adrenocorticotropic hormone (SYSMEHFRWGKPVGKKRRPVKVYPNGAEDESAEAFPLEF; Corticotropin; UniProt P01189 138-176, looked up) |  |  | retardation of the extinction of conditioned flight behaviour [1]: retard the extinction
2 | FRWGKPVGKK [7-16 ACTH] | 1 | 1 | 
3 | Phe-[dK]-Phe | 0.1 |  | psychopharmacological activity (in words) ([2]; in vivo): some psychopharmacological activity, although in a latent form
4 | F[dK]FGKPVGK |  | 1 | 
5 | F[dK]FGKPVGKK | 100 | 100 | 
6 | F[dK]FG[dK]PVGKK |  | 10,000 | 
7 | Phe-Arg-Trp [7-9 ACTH] | 0.1 |  | 
8 | H-L-Met (→ O)-L-Glu-L-His-L-Phe-D-Lys-L-Phe-OH |  |  | activity relative to the unchanged 4-9 ACTH ([1]; psychopharmacological activity, peptide of the earlier U.S. patents): about 1000 times
9 | 4-10 ACTH: the peptide containing the amino-acid sequence 4-10 from ACTH (MEHFRWG; Corticotropin; UniProt P01189 141-147, looked up, fragment) |  |  | retardation of the extinction of conditioned flight behaviour [1]: as active as ACTH itself
